# Laboratory results taken from paper PMC12016938, “A small molecule PKCε inhibitor reduces hyperalgesia induced by paclitaxel or opioid withdrawal” (JCI Insight, 2025).
# Several values for one entry are separate records, joined by “and”; a condition that tells them apart may be missing. Equal entries are not always repeated. Structures can show the parent of a compound that is named as a salt.
# Tested on: self-administration (addictive potential)
# Experiment: I.v. self-administration of CP612, between-session progressive ratio and demand curve
# Method: We tested the addictive potential of CP612 by examining the extent to which rats are willing to work to obtain CP612. Rats were initially trained to self-administer either saline, morphine (500 μg/kg/i.v. infusion), or 1 of 3 different doses of CP612 (75, 150, or 300 μg/kg/i.v. infusion) for 4 days at fixed ratio 1 (FR1, where 1 nose poke delivers 1 infusion).
# During the second phase, the ratio to obtain an infusion increased geometrically every other day (FR1, FR3, FR6, FR12, FR24, FR48, and FR96).
# Data (number of self-infusions) were also fitted in an economic-demand curve, which provides an estimate of the motivation to obtain drugs and their addictive potential ([20]). We measured elasticity (α), which is the relative change in consumption as a function of price (i.e., ratio of nose pokes required to obtain an infusion). Behavior is considered “inelastic” when consumption is insensitive to price and “elastic” when consumption is sensitive to price. We also measured Pmax, which is the price at which intake switches from inelastic to elastic. […] (Figure 8B).
# Rats not immediately anesthetized were eliminated from the study.
# Following this initial acquisition phase at FR1, the ratio to obtain the drug was increased geometrically every other day: FR3 (3 nose pokes are required to obtain 1 infusion of morphine), FR6, FR12, FR24, FR48, and FR96. This allows for analysis of drug consumption as a function of “price” using demand curves for behavioral economics, which can estimate the motivation to obtain drugs and their “addictive potential” ([20]). For this, data from each rat were fitted to the equation log Q = log Q0 + k (e ^–α(Q0 ^C) – 1), where Q represents consumption (number of self-infusions), and Q0 represents the level of consumption at the lowest price. C represents price for the drug (i.e., the ratio), and k is set to a constant accounting for the estimated range of consumption in logarithmic units (k = 4 in these studies). The symbol α is the relative change in consumption across changes in price (ratio). Behavior is considered “inelastic” when consumption is insensitive to price (i.e., the curve is flat, and consumption is maintained despite increases in price), and it switches to “elastic” when consumption is sensitive to price (i.e., when the curve is steep and consumption declines with increases in price). […] We also compared groups for their average intake in the consumption-price curves by measuring α (elasticity) and Pmax.
# [1] = individual rat values, drug self-administered
smiles,measurement,setting,value
"CN1CC[C@]23c4c5ccc(O)c4O[C@H]2[C@@H](O)C=C[C@H]3[C@H]1C5 [Morphine, Morphine sulfate, reference compound]",Responding in the active hole when the ratio to obtain an infusion increased,"FR1 to FR96, CP612 75, 150, 300 or morphine 500 μg/kg/i.v. infusion",increased responding
same,Number of self-infusions when the ratio to obtain an infusion increased,"FR1 to FR96, compared with saline",did not significantly decrease
same,D1 AH (FR1),[1],7 and 9 and 15
same,D1 AH (FR3),[1],23 and 18 and 20
same,D1 AH (FR6),[1],51 and 24 and 47
same,D1 AH (FR12),[1],97 and 70 and 72
same,D1 AH (FR24),[1],143 and 139 and 168
same,D1 AH (FR48),[1],113 and 164 and 127
same,D1 AH (FR96),[1],127 and 137 and 133
same,D1 IH (FR1),[1],1 and 12 and 2
same,D1 IH (FR3),[1],9 and 12 and 5
same,D1 IH (FR6),[1],0 and 9 and 7
same,D1 IH (FR12),[1],2 and 15 and 20
same,D1 IH (FR24),[1],7 and 9 and 20
same,D1 IH (FR48),[1],13 and 28
same,D1 IH (FR96),[1],7 and 33
same,D1 Inf (FR1),[1],6 and 7 and 10
same,D1 Inf (FR3),[1],7 and 5 and 6
same,D1 Inf (FR6),[1],8 and 4 and 7
same,D1 Inf (FR12),[1],8 and 5 and 6
same,D1 Inf (FR24),[1],5 and 6
same,D1 Inf (FR48),[1],2 and 3
same,D1 Inf (FR96),[1],1
same,D1 Latency (FR1),[1],1.5 and 1.4 and 2.3
same,D1 Latency (FR3),[1],0.38 and 0.7 and 0.267
same,D1 Latency (FR6),[1],0.2 and 0.317 and 0.6
same,D1 Latency (FR12),[1],1.6 and 0.6 and 1.7
same,D1 Latency (FR24),[1],1.3 and 0.5 and 0.26
same,D1 Latency (FR48),[1],0.367 and 0.26 and 1.1
same,D1 Latency (FR96),[1],1.0 and 1.1 and 0.7
same,D2 AH (FR1),[1],5 and 7 and 12
same,D2 AH (FR3),[1],25 and 23 and 26
same,D2 AH (FR6),[1],59 and 60 and 46
same,D2 AH (FR12),[1],118 and 94 and 104
same,D2 AH (FR24),[1],143 and 151 and 176
same,D2 AH (FR48),[1],163 and 134 and 158
same,D2 AH (FR96),[1],106 and 145 and 179
same,D2 IH (FR1),[1],8 and 6 and 2
same,D2 IH (FR3),[1],1 and 11 and 13
same,D2 IH (FR6),[1],9 and 8
same,D2 IH (FR12),[1],8 and 7
same,D2 IH (FR24),[1],11 and 7 and 20
same,D2 IH (FR48),[1],19 and 11
same,D2 IH (FR96),[1],6 and 16
same,D2 Inf (FR1),[1],5 and 6 and 9
same,D2 Inf (FR3),[1],8 and 6
same,D2 Inf (FR6),[1],8 and 9 and 7
same,D2 Inf (FR12),[1],9 and 6 and 7
same,D2 Inf (FR24),[1],5 and 6 and 7
same,D2 Inf (FR48),[1],3 and 2
same,D2 Inf (FR96),[1],1
same,D2 Latency (FR1),[1],0.458 and 1.3 and 0.3
same,D2 Latency (FR3),[1],0.25 and 0.473 and 0.4
same,D2 Latency (FR6),[1],3.2 and 1.4 and 0.647
same,D2 Latency (FR12),[1],0.127 and 0.277 and 0.753
same,D2 Latency (FR24),[1],3.0 and 1.6
same,D2 Latency (FR48),[1],0.218 and 0.3 and 0.9
same,D2 Latency (FR96),[1],0.5 and 0.28 and 1.1
same,D3 AH (FR1),[1],8 and 11 and 13
same,D3 IH (FR1),[1],3 and 5 and 0
same,D3 Inf (FR1),[1],6 and 7 and 9
same,D3 Latency (FR1),[1],0.6 and 2.1 and 0.053
same,D4 AH (FR1),[1],10 and 12 and 11
same,D4 IH (FR1),[1],0 and 4 and 2
same,D4 Inf (FR1),[1],7 and 9
same,D4 Latency (FR1),[1],0.13 and 0.6 and 0.632
same,last AH (FR1),[1],7 and 8 and 14
same,last IH (FR1),[1],3 and 2 and 4
same,last Inf (FR1),[1],6
same,last Latency (FR1),[1],0.34 and 0.452 and 0.9
same,last-1 AH (FR1),[1],10 and 12 and 11
same,last-1 IH (FR1),[1],0 and 4 and 2
same,last-1 Inf (FR1),[1],7 and 9
same,last-1 Latency (FR1),[1],0.13 and 0.6 and 0.632
same,last-2 AH (FR1),[1],8 and 11 and 13
same,last-2 IH (FR1),[1],3 and 5 and 0
same,last-2 Inf (FR1),[1],6 and 7 and 9
same,last-2 Latency (FR1),[1],0.6 and 2.1 and 0.053
same,last-3 AH (FR1),[1],5 and 7 and 12
same,last-3 IH (FR1),[1],8 and 6 and 2
same,last-3 Inf (FR1),[1],5 and 6 and 9
same,last-3 Latency (FR1),[1],0.458 and 1.3 and 0.3
same,Pmax (price at which intake switches from inelastic to elastic),morphine 500 μg/kg/i.v. infusion,50.1
same,AVG AH (FR3),"morphine, individual rats",43.5 and 29.0 and 31.0 and 18.0 and 18.5 and 24.0
same,AVG AH (FR6),"morphine, individual rats",43.5 and 53.5 and 45.5 and 38.5 and 31.0 and 21.0
same,AVG AH (FR12),"morphine, individual rats",62.0 and 88.0 and 64.5 and 104.0 and 39.0 and 41.5
same,AVG AH (FR24),"morphine, individual rats",164.5 and 149.5 and 79.5 and 187.0 and 122.5 and 61.0
same,AVG AH (FR48),"morphine, individual rats",232.5 and 252.5 and 73.5 and 255.0 and 135.0 and 63.0
same,AVG AH (FR96),"morphine, individual rats",203.5 and 351.0 and 57.0 and 198.0 and 210.5 and 36.0
same,AVG IH (FR1_D1 to D4),"morphine, individual rats",10.3 and 8.8 and 13.3 and 5.3 and 14.8 and 7.0
same,AVG IH (FR1_Last 2 FR1 days),"morphine, individual rats",3.5 and 3.0 and 5.5 and 5.0 and 6.5 and 9.0
same,AVG IH (FR1_Last 4 FR1 days),"morphine, individual rats",10.8 and 3.5 and 9.5 and 4.8 and 11.0 and 7.5
same,AVG IH (FR3),"morphine, individual rats",10.0 and 7.5 and 8.5 and 8.0 and 15.0 and 9.0
same,AVG IH (FR6),"morphine, individual rats",6.5 and 7.0 and 9.0 and 7.5 and 13.5 and 11.0
same,AVG IH (FR12),"morphine, individual rats",11.0 and 9.5 and 19.0 and 5.0 and 6.0 and 4.0
same,AVG IH (FR24),"morphine, individual rats",11.0 and 10.0 and 15.0 and 7.5 and 8.5
same,AVG IH (FR48),"morphine, individual rats",8.5 and 13.5 and 12.0 and 18.0 and 9.5 and 13.0
same,AVG IH (FR96),"morphine, individual rats",8.5 and 18.5 and 13.5 and 14.5 and 26.0
same,AVG Inf (FR1_D1 to D4),"morphine, individual rats",10.8 and 9.3 and 8.0 and 12.0 and 9.5 and 10.0
same,AVG Inf (FR1_Last 2 FR1 days),"morphine, individual rats",14.0 and 10.0 and 11.0 and 9.0 and 7.5
same,AVG Inf (FR1_Last 4 FR1 days),"morphine, individual rats",12.0 and 10.0 and 9.0 and 13.3 and 9.5 and 9.3
same,AVG Inf (FR3),"morphine, individual rats",10.5 and 8.5 and 9.5 and 5.0 and 4.5
same,AVG Inf (FR6),"morphine, individual rats",7.0 and 7.5 and 6.0 and 4.0 and 3.0
same,AVG Inf (FR12),"morphine, individual rats",5.0 and 6.0 and 4.5 and 8.0 and 3.0
same,AVG Inf (FR24),"morphine, individual rats",6.0 and 5.5 and 3.0 and 7.5 and 4.0 and 2.0
same,AVG Inf (FR48),"morphine, individual rats",4.5 and 5.0 and 1.0 and 2.0
same,AVG Inf (FR96),"morphine, individual rats",1.5 and 3.0 and 0.0
same,AVG Latency (FR1_D1 to D4),"morphine, individual rats",2.4 and 4.0 and 9.8 and 1.3 and 2.0 and 1.1
same,AVG Latency (FR1_Last 2 FR1 days),"morphine, individual rats",0.271 and 0.4 and 3.0 and 0.18 and 0.74 and 1.1
same,AVG Latency (FR1_Last 4 FR1 days),"morphine, individual rats",0.3 and 0.277 and 3.8 and 0.6 and 1.1
